Data reported in ChEMBL document CHEMBL3734723, “Synthesis and anticancer activity of 6-heteroarylcoumarins” (2015).

Tests used:
Assay type in all cases: functional
[1] = Cytotoxicity against human OVCAR8 cells assessed as cell growth at 10 uM incubated for 48 hrs by sulforhodamine B assay; conditions: OVCAR-8, 48 h, read-out: Activity
[2] = Cytotoxicity against human COLO205 cells assessed as cell growth at 10 uM incubated for 48 hrs by sulforhodamine B assay; conditions: COLO 205, 48 h, read-out: Activity
[3] = Growth inhibition of human SF295 cells incubated for 48 hrs by sulforhodamine B assay; conditions: SF-295, 48 h
[4] = Cytotoxicity against human DU145 cells assessed as cell growth at 10 uM incubated for 48 hrs by sulforhodamine B assay; conditions: DU-145, 48 h, read-out: Activity
[5] = Cytotoxicity against human HOP62 cells assessed as cell growth at 10 uM incubated for 48 hrs by sulforhodamine B assay; conditions: HOP-62, 48 h, read-out: Activity
EKVX = assay: Growth inhibition of human EKVX cells incubated for 48 hrs by sulforhodamine B assay
[6] = Growth inhibition of human Caki1 cells incubated for 48 hrs by sulforhodamine B assay; conditions: CAKI-1, 48 h
MDA-MB-435 = assay: Growth inhibition of human MDA-MB-435 cells incubated for 48 hrs by sulforhodamine B assay; conditions: MDA-MB-435, 48 h
NCI-H226 = assay: Cytotoxicity against human NCI-H226 cells assessed as cell growth at 10 uM incubated for 48 hrs by sulforhodamine B assay; conditions: NCI-H226, 48 h, read-out: Activity
[7] = Growth inhibition of human OVCAR4 cells incubated for 48 hrs by sulforhodamine B assay; conditions: OVCAR-4, 48 h
[8] = Cytotoxicity against human SKOV3 cells assessed as cell growth at 10 uM incubated for 48 hrs by sulforhodamine B assay; conditions: SK-OV-3, 48 h, read-out: Activity
SK-MEL-28 = assay: Cytotoxicity against human SK-MEL-28 cells assessed as cell growth at 10 uM incubated for 48 hrs by sulforhodamine B assay; conditions: SK-MEL-28, 48 h, read-out: Activity
[9] = Growth inhibition of human MOLT4 cells incubated for 48 hrs by sulforhodamine B assay; conditions: MOLT-4, 48 h
SK-MEL-2 = assay: Cytotoxicity against human SK-MEL-2 cells assessed as cell growth at 10 uM incubated for 48 hrs by sulforhodamine B assay; conditions: SK-MEL-2, 48 h, read-out: Activity
[10] = Growth inhibition of human HL-60(TB) cells incubated for 48 hrs by sulforhodamine B assay; conditions: HL-60, 48 h
[11] = Cytotoxicity against human BT549 cells assessed as cell growth at 10 uM incubated for 48 hrs by sulforhodamine B assay; conditions: BT-549, 48 h, read-out: Activity
[12] = Cytotoxicity against human HCC2998 cells assessed as cell growth at 10 uM incubated for 48 hrs by sulforhodamine B assay; conditions: HCC 2998, 48 h, read-out: Activity
[13] = read-out: LC50 (the source's name)

Cc1cc(=O)oc2c(C)c(O)c(-c3ccnc(N)n3)cc12
growth at 10 µM [1]: 48%
growth at 10 µM [2]: 46.9%
GI50 [3]: 8.74 µM
TGI [3]: > 100 µM
CC50 [3, 13]: > 100 µM
growth at 10 µM [4]: 66.6%
growth at 10 µM [5]: 67.8%
GI50 (EKVX): 48.4 µM
TGI (EKVX): > 100 µM
CC50 (EKVX; [13]): > 100 µM
GI50 [6]: 3.95 µM
TGI [6]: > 100 µM
CC50 [6, 13]: > 100 µM
GI50 (MDA-MB-435): > 100 µM
TGI (MDA-MB-435): > 100 µM
CC50 (MDA-MB-435; [13]): > 100 µM
growth at 10 µM (NCI-H226): 52.3%

Cc1cc(=O)oc2c(C)c(O)c(-c3cc4ccc(F)cc4[nH]3)cc12
GI50 [7]: 3.99 µM
TGI [7]: 32.9 µM
CC50 [7, 13]: > 100 µM
growth at 10 µM [8]: 47.1%
growth at 10 µM (SK-MEL-28): 55.3%
GI50 [9]: 3.27 µM
TGI [9]: 15 µM
CC50 [9, 13]: > 100 µM
growth at 10 µM (SK-MEL-2): 19.5%
GI50 [10]: 2.96 µM
TGI [10]: 9.69 µM
CC50 [10, 13]: > 100 µM
growth at 10 µM [11]: 47.6%
growth at 10 µM [12]: 24.9%
